The structures appear in SMILES notation.

The target of the assay is T1, LmME (Leishmania major, UniProt Q4QAQ6).
T1 sequence (Q4QAQ6 1-573): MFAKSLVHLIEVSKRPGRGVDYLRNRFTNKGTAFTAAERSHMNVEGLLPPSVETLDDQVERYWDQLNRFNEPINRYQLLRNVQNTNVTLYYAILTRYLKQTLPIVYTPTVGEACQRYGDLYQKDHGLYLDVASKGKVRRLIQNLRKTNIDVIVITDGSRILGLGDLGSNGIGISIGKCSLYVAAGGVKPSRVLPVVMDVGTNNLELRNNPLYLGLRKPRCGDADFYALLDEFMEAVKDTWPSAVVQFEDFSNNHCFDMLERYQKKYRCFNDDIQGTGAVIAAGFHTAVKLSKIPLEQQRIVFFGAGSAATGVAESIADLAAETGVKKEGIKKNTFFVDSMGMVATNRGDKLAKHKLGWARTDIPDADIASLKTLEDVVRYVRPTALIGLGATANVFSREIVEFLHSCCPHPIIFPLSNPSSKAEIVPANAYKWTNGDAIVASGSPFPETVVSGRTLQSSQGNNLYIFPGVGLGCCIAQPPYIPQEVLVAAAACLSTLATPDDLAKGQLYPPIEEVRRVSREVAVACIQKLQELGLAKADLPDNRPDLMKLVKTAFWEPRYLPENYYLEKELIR
The experiment in a line: spectrophotometric NADPH assay at […] nm, malate decarboxylation. The class given is biochemical.

By IC50 is commonly meant the concentration that gives 50% inhibition. The low end stands for greater potency, the high end for weaker potency. As to `c1ccc(-c2nnc3sc(Cc4ccc5c(c4)CCCC5)nn23)nc1` [ATR7-010], half-maximal inhibition (IC50) required 1590 nM.
